From patent US8575201B2 (Boehringer Ingelheim International GmbH, priority 2010, dated 2013)
pIC50: −log10 of the molar value.

Legend:
[1] = biological target: recombinant human FLAP protein (Homo sapiens (Human), UniProt P20292); assay: FLAP binding assay (Scintillation Proximity Assay, displacement of [125I]L-691,831); settings: read-out: FLAP SPA IC50
Procedure, shortened: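 Scintillation proximity displacement of an iodinated (125I) FLAP inhibitor by test compounds, using 100,000×g membrane fraction from lysed cells. Final beads 200 μg/well and protein 5 μg/well; plates shaken 2 h before reading.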

[2] = system: synthesis of LTB4 in human whole blood; assay: Human whole blood LTB4 production inhibition assay; format: cell-based; settings: calcimycin stimulated, read-out: hWB LTB4 IC50
Procedure, shortened: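 Readout: plasma LTB4 by antibody-based HTRF. Compound added to heparinized human whole blood, 15 min 37° C; calcimycin 20 μM final (PBS pH 7.4), 30 min 37° C; spun 1500×g 5 min, plasma taken.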

recombinant human FLAP protein, sequence (P20292 whole entry): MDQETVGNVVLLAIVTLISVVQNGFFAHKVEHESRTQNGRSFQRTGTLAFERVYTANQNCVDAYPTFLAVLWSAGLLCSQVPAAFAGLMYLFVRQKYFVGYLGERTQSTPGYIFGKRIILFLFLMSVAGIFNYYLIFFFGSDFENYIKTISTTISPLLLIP

SMILES	pIC50 [1]	pIC50 [2]
Nc1ncc(-c2ccc(C3(c4noc(-c5ccc(Cl)nc5)n4)CCC3)cn2)cn1 [Example 99, 5-(5-{1-[5-(6-chloropyridin-3-yl)-1,2,4-oxadiazol-3-yl]cyclobutyl}pyridin-2-yl)pyrimidin-2-amine]	8.12	6.18
Nc1ncc(-c2ccc(C3(c4noc(-c5cncnc5)n4)CCC3)cn2)cn1 [Example 100, 5-(5-{1-[5-(pyrimidin-5-yl)-1,2,4-oxadiazol-3-yl]cyclobutyl}pyridin-2-yl)pyrimidin-2-amine]	6.92	6.02
Cc1cc(-c2nc(C3(c4ccc(-c5cnc(N)nc5)nc4)CCC3)no2)ccn1 [Example 101, 5-(5-{1-[5-(2-methylpyridin-4-yl)-1,2,4-oxadiazol-3-yl]cyclobutyl}pyridin-2-yl)pyrimidin-2-amine]	7.62	6.09
Cn1cc(-c2nc(C3(c4ccc(-c5cnc(N)nc5)nc4)CCC3)no2)cn1 [Example 102, 5-(5-{1-[5-(1-methyl-1H-pyrazol-4-yl)-1,2,4-oxadiazol-3-yl]cyclobutyl}pyridin-2-yl)pyrimidin-2-amine]	7.89	6.57
Cc1n[nH]c(C)c1-c1nc(C2(c3ccc(-c4cnc(N)nc4)nc3)CCC2)no1 [Example 103, 5-(5-{1-[5-(3,5-dimethyl-1H-pyrazol-4-yl)-1,2,4-oxadiazol-3-yl]cyclobutyl}pyridin-2-yl)pyrimidin-2-amine]	7.85	6.00
Nc1ncc(-c2ccc(C3(c4noc(-c5ccnnc5)n4)CCC3)cn2)cn1 [Example 104, 5-(5-{1-[5-(pyridazin-4-yl)-1,2,4-oxadiazol-3-yl]cyclobutyl}pyridin-2-yl)pyrimidin-2-amine]	6.96	5.68
Nc1ncc(-c2ccc(C3(c4noc(-c5cccnc5N)n4)CCC3)cn2)cn1 [Example 105, 5-(5-{1-[5-(2-aminopyridin-3-yl)-1,2,4-oxadiazol-3-yl]cyclobutyl}pyridin-2-yl)pyrimidin-2-amine]	7.77	6.24
Nc1ncc(-c2ccc(C3(c4noc(-c5cnccc5N)n4)CCC3)cn2)cn1 [Example 106, 5-(5-{1-[5-(4-aminopyridin-3-yl)-1,2,4-oxadiazol-3-yl]cyclobutyl}pyridin-2-yl)pyrimidin-2-amine]	7.51	6.08
Nc1ncc(-c2ccc(C3(c4noc(-c5cnccc5O)n4)CCC3)cn2)cn1 [Example 107, 3-(3-{1-[6-(2-aminopyrimidin-5-yl)pyridin-3-yl]cyclobutyl}-1,2,4-oxadiazol-5-yl)pyridin-4-ol]	6.72	5.40
Nc1ncc(-c2ccc(C3(c4noc(-c5ccc(=O)[nH]c5)n4)CCC3)cn2)cn1 [Example 108, 5-(3-{1-[6-(2-aminopyrimidin-5-yl)pyridin-3-yl]cyclobutyl}-1,2,4-oxadiazol-5-yl)pyridin-2(1H)-one]	7.32	6.14
Nc1ncc(-c2ccc(C3(c4noc(-c5cccnc5C(F)(F)F)n4)CCC3)cn2)cn1 [Example 109, 5-[5-(1-{5-[2-(trifluoromethyl)pyridin-3-yl]-1,2,4-oxadiazol-3-yl}cyclobutyl)pyridin-2-yl]pyrimidin-2-amine]	7.85	5.82
CN(C)c1ccc(-c2nc(C3(c4ccc(-c5cnc(N)nc5)nc4)CCC3)no2)cn1 [Example 110, 5-[5-(1-{5-[6-(dimethylamino)pyridin-3-yl]-1,2,4-oxadiazol-3-yl}cyclobutyl)pyridin-2-yl]pyrimidin-2-amine]	8.62	6.51
Nc1ccc(-c2nc(C3(c4ccc(-c5cnc(N)nc5)nc4)CCC3)no2)cn1 [Example 111, 5-(5-{1-[5-(6-aminopyridin-3-yl)-1,2,4-oxadiazol-3-yl]cyclobutyl}pyridin-2-yl)pyrimidin-2-amine]	8.38	7.13
Nc1ncc(-c2ccc(C3(c4noc(-c5ccc(N6CCCC6)nc5)n4)CCC3)cn2)cn1 [Example 112, 5-[5-(1-{5-[6-(pyrrolidin-1-yl)pyridin-3-yl]-1,2,4-oxadiazol-3-yl}cyclobutyl)pyridin-2-yl]pyrimidin-2-amine]	8.48	6.24
CNc1ccc(-c2nc(C3(c4ccc(-c5cnc(N)nc5)nc4)CCC3)no2)cn1 [Example 113, 5-[5-(1-{5-[6-(methylamino)pyridin-3-yl]-1,2,4-oxadiazol-3-yl}cyclobutyl)pyridin-2-yl]pyrimidin-2-amine]	8.62	7.00
CC(C)Nc1ccc(-c2nc(C3(c4ccc(-c5cnc(N)nc5)nc4)CCC3)no2)cn1 [Example 114, 5-[5-(1-{5-[6-(propan-2-ylamino)pyridin-3-yl]-1,2,4-oxadiazol-3-yl}cyclobutyl)pyridin-2-yl]pyrimidin-2-amine]	8.82	6.55

SMILES	pIC50 [1]	pIC50 [2]
Nc1ncc(-c2ccc(C3(c4noc(-c5ccc(NCCO)nc5)n4)CCC3)cn2)cn1 [Example 115, 2-{[5-(3-{1-[6-(2-aminopyrimidin-5-yl)pyridin-3-yl]cyclobutyl}-1,2,4-oxadiazol-5-yl)pyridin-2-yl]amino}ethanol]	8.72	7.31
CN(CCO)c1ccc(-c2nc(C3(c4ccc(-c5cnc(N)nc5)nc4)CCC3)no2)cn1 [Example 116, 2-{[5-(3-{1-[6-(2-aminopyrimidin-5-yl)pyridin-3-yl]cyclobutyl}-1,2,4-oxadiazol-5-yl)pyridin-2-yl](methyl)amino}ethanol]	8.37	6.85
COCCN(C)c1ccc(-c2nc(C3(c4ccc(-c5cnc(N)nc5)nc4)CCC3)no2)cn1 [Example 117, 5-{5-[1-(5-{6-[(2-methoxyethyl)(methyl)amino]pyridin-3-yl}-1,2,4-oxadiazol-3-yl)cyclobutyl]pyridin-2-yl}pyrimidin-2-amine]	8.52	6.92
COCCNc1ccc(-c2nc(C3(c4ccc(-c5cnc(N)nc5)nc4)CCC3)no2)cn1 [Example 118, 5-{5-[1-(5-{6-[(2-methoxyethyl)amino]pyridin-3-yl}-1,2,4-oxadiazol-3-yl)cyclobutyl]pyridin-2-yl}pyrimidin-2-amine]	8.55	7.08
CS(=O)(=O)c1ccc(-c2nc(C3(c4ccc(-c5cnc(N)nc5)nc4)CCC3)no2)cn1 [Example 119, 5-[5-(1-{5-[6-(methylsulfonyl)pyridin-3-yl]-1,2,4-oxadiazol-3-yl}-cyclobutyl)pyridin-2-yl]pyrimidin-2-amine]	7.21	6.64
Nc1ncc(-c2ccc(C3(c4noc(-c5nc[nH]n5)n4)CCC3)cn2)cn1 [Example 120, 5-(5-{1-[5-(1H-1,2,4-triazol-3-yl)-1,2,4-oxadiazol-3-yl]cyclobutyl}pyridin-2-yl)pyrimidin-2-amine]	6.70	< 5.30
Cc1cc(-c2nc(C3(c4ccc(-c5cnc(N)nc5)nc4)CCC3)no2)n(C)n1 [Example 121, 5-(5-{1-[5-(1,3-dimethyl-1H-pyrazol-5-yl)-1,2,4-oxadiazol-3-yl]cyclobutyl}pyridin-2-yl)pyrimidin-2-amine]	7.55	5.74
CNc1ncccc1-c1nc(C2(c3ccc(-c4cnc(N)nc4)nc3)CCC2)no1 [Example 122, 5-[5-(1-{5-[2-(methylamino)pyridin-3-yl]-1,2,4-oxadiazol-3-yl}cyclobutyl)pyridin-2-yl]pyrimidin-2-amine]	7.55	5.42
Nc1ncc(-c2ccc(C3(c4noc(-c5cncs5)n4)CCC3)cn2)cn1 [Example 123, 5-(5-{1-[5-(1,3-thiazol-5-yl)-1,2,4-oxadiazol-3-yl]cyclobutyl}pyridin-2-yl)pyrimidin-2-amine]	7.51	6.10
Cn1nccc1-c1nc(C2(c3ccc(-c4cnc(N)nc4)nc3)CCC2)no1 [Example 124, 5-(5-{1-[5-(1-methyl-1H-pyrazol-5-yl)-1,2,4-oxadiazol-3-yl]cyclobutyl}pyridin-2-yl)pyrimidin-2-amine]	7.96	6.68
Nc1ncc(-c2ccc(C3(c4noc(-c5ccc(N6CCNC(=O)C6)nc5)n4)CCC3)cn2)cn1 [Example 125, 4-[5-(3-{1-[6-(2-aminopyrimidin-5-yl)pyridin-3-yl]cyclobutyl}-1,2,4-oxadiazol-5-yl)pyridin-2-yl]piperazin-2-one]	8.74	6.80
CN(C)c1ncccc1-c1nc(C2(c3ccc(-c4cnc(N)nc4)nc3)CCC2)no1 [Example 126, 5-[5-(1-{5-[2-(dimethylamino)pyridin-3-yl]-1,2,4-oxadiazol-3-yl}cyclobutyl)pyridin-2-yl]pyrimidin-2-amine]	7.47	< 5.30
Cn1ccc(-c2nc(C3(c4ccc(-c5cnc(N)nc5)nc4)CCC3)no2)n1 [Example 127, 5-(5-{1-[5-(1-methyl-1H-pyrazol-3-yl)-1,2,4-oxadiazol-3-yl]cyclobutyl}pyridin-2-yl)pyrimidin-2-amine]	7.40	6.19
Nc1ncc(-c2ccc(C3(c4noc(-c5cccnc5N5CCOCC5)n4)CCC3)cn2)cn1 [Example 128, 5-[5-(1-{5-[2-(morpholin-4-yl)pyridin-3-yl]-1,2,4-oxadiazol-3-yl}cyclobutyl)pyridin-2-yl]pyrimidin-2-amine]	7.18	5.57
Nc1ncc(-c2ccc(C3(c4noc(-c5cnccn5)n4)CCC3)cn2)cn1 [Example 129, 5-(5-{1-[5-(pyrazin-2-yl)-1,2,4-oxadiazol-3-yl]cyclobutyl}pyridin-2-yl)pyrimidin-2-amine]	7.33	6.20
Cc1cnc(-c2nc(C3(c4ccc(-c5cnc(N)nc5)nc4)CCC3)no2)cn1 [Example 130, 5-(5-{1-[5-(5-methylpyrazin-2-yl)-1,2,4-oxadiazol-3-yl]cyclobutyl}pyridin-2-yl)pyrimidin-2-amine]	7.59	6.46
